Test results: patent US20020102688A1, “Methods and products for the synthesis of oligosaccharide structures on glycoproteins, glycolipids, or as free molecules, and for the isolation of cloned genetic sequences that determine these structures” (The Regents of the University of Michigan, priority 1990, published 2002)

Experiments:
[1] = system: monoclonal anti-H antibody; test: Hapten inhibition of anti-H antibody binding to mH1-12 cells (indirect immunofluorescence); parameters: species or system mouse; details: antibody preincubated with hapten, 20 mM
Method: Immunofluoroscence was performed on cells plated on 8-well tissue culture chamber slides (Lab-Tek). Cells were plated at a density of 5×10^4/well 24 h prior to analysis. Anti-H and anti-A primary antibodies were diluted in PBS containing bovine serum albumin at 2 mg/ml, to a final concentration of 10 μg/ml. Cell-bound primary antibodies were detected with FITC-conjugated goat anti-mouse IgM, diluted to 40 μg/ml in PBS containing 2 mg/ml bovine serum albumin.
Hapten Inhibition—Plated cells were washed twice with PBS, and were incubated for 30 min at 4° C. with 100 μl of diluted anti-H antibody, or with 100 μl of diluted antibody containing different oligosaccharide haptens, each at a concentration of 20 mM. The chambers were then washed twice, and 100 μl of FITC-conjugated goat anti-mouse IgM was added. After 30 min at 4° C., the chambers were washed three times with PBS, and the cells were fixed at room temperature for 10 min in 3.7% formaldehyde in PBS. The cells were washed twice with PBS, the chambers were removed, and the slide was mounted in PBS containing 25% glycerol. Cells were examined by fluorescence microscopy using a Zeiss Axiophot photomicroscope equipped with fluorescence epiillumination.

[2] = target: T1, Fuc-TIV (Homo sapiens, UniProt P22083); test: Fucosyltransferase assay, extracts of CHO-FT3 cells (CHO transfected with pCDNA1-Fuc-TIV); type: biochemical; parameters: expressed in transfected cells; details: standard assay, CHO-FT3 cell extracts
T1 sequence (P22083 1-405 isoform P22083-2): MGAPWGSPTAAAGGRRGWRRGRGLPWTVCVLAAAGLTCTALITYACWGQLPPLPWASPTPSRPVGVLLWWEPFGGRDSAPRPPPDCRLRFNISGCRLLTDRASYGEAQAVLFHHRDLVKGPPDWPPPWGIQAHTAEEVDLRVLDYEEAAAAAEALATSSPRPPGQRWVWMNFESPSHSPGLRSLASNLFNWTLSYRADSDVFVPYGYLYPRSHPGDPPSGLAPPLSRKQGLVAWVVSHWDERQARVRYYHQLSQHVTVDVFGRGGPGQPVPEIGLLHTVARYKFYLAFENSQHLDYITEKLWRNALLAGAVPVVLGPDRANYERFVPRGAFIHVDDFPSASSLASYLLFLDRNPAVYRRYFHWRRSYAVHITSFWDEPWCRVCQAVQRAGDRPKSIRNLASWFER
Method: CHO Ade-C cells were transfected with Scal-linearized pCDM7-Fuc-TIV, co-precipitated in a 10-fold molar excess over EcoRI-linearized pSV2-Neo. A single, clonal, SSEA-1-positive cell line (CHO-FT3) was derived from this population. Cell extracts prepared from CHO-FT3 contained substantial amounts of α(1,3)fucosyltransferase activity when assayed with the acceptor N-acetyllactosamine.
Cell extracts containing 1% Triton X-100 were prepared from transfected COS-1 cells. Fucosyltransferase assays were performed in a total volume of 20 μl, and contained 50 mM sodium cacodylate, pH 6.2, 5 mM ATP, 10 mM fucose, 20 mM MnCl2, 3 μM GDP-^14C-fucose, and 5 μl (30 μg protein) of cell extract. Acceptor substrates were added to a final concentration of 20 mM. Reactions were incubated at 37° C. for 1 hour and terminated by addition of 20 μl ethanol, followed by addition of 600 μl of distilled water. An aliquot of each reaction (50 μl) was subjected to scintillation counting to determine total radioactivity in the reaction. Another aliquot (200 μl) was applied to a column containing 400 μl of Dowex IX2-400, formate form. The flow through fraction, and […] of a subsequent water elution, were collected and pooled, and an aliquot was subjected to scintillation counting to quantitate incorporation of radioactive fucose into neutral product. Descending paper chromatography was used to confirm the structure of the product formed with the acceptor N-acetyllactosamine. The neutral product in the Dowex column eluate was concentrated by lyophilization, resuspended in a small volume of water, and fractionated through Whatman No. 40 in phenol/isopropanol/formic acid/water (85:5:10:100, lower layer). After chromatography (40 hours), the air-dried chromatogram was cut into 1 cm strips and the strips eluted into 2 ml of water. Radioactivity in each eluate was determined by scintillation counting after mixing with 10 ml of scintillation cocktail.

Row | α(1,3)fucosyltransferase activity with acceptor substrate [2] [pmol/mg/h] | Compound | inhibition of anti-H antibody binding to mH1-12 cells by hapten [1]
1 | 2.0 | OC[C@H]1O[C@@H](O[C@H]2[C@H](O)[C@@H](O)C(O)O[C@@H]2CO)[C@H](O)[C@@H](O)[C@H]1O (stereo partly drawn) [lactose] | does not inhibit
2 | 5.8 | Fucα(1,2)Galβ(1,4)Glc [2-fucosyllactose] | blocked

Row | Compound | α(1,3)fucosyltransferase activity with acceptor substrate [2] [pmol/mg/h] | inhibition of anti-H antibody binding to mH1-12 cells by hapten [1]
3 | CC(=O)N[C@H]1C(O)O[C@H](CO)[C@@H](O[C@@H]2O[C@H](CO)[C@H](O)[C@H](O)[C@H]2O)[C@@H]1O (stereo partly drawn) [N-acetyllactosamine] | 59.1 | does not inhibit
